Two compounds from article PMC6700223 (Frontiers in Microbiology, 2019) can be followed below.

For this assay, the target named is HR1-1 peptide (HR1 domain of LASV GP2) (Lassa virus, UniProt P08669). The assay can be described thus: biochemical. The assay is classed as binding.
Sequence of HR1-1 peptide (HR1 domain of LASV GP2) (P08669 296-345 limits assumed): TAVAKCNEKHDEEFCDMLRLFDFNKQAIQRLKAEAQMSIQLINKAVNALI

As for `CC[C@H](C)[C@H](NC(=O)[C@H](CC(=O)O)NC(=O)[C@H](CC(=O)O)NC(=O)[C@H](CO)NC(=O)[C@H](Cc1ccccc1)NC(=O)[C@H](Cc1c[nH]cn1)NC(=O)[C@@H](NC(=O)[C@H](CCC(=O)O)NC(=O)[C@H](CC(N)=O)NC(=O)[C@H](CC(C)C)NC(=O)[C@H](Cc1ccc(O)cc1)NC(=O)[C@@H](N)CO)[C@@H](C)O)C(=O)N[C@@H](CCC(=O)O)C(=O)N[C@@H](CCC(N)=O)C(=O)N[C@@H](CCC(N)=O)C(=O)N[C@@H](C)C(=O)N[C@@H](CC(=O)O)C(=O)N[C@@H](CC(N)=O)C(=O)N[C@@H](CCSC)C(=O)N[C@H](C(=O)N[C@H](C(=O)N[C@@H](CCC(=O)O)C(=O)N[C@@H](CCSC)C(=O)N[C@@H](CC(C)C)C(=O)N[C@@H](CCC(N)=O)C(=O)N[C@@H](CCCCN)C(=O)N[C@@H](CCC(=O)O)C(=O)N[C@@H](Cc1ccc(O)cc1)C(=O)N[C@@H](CCSC)C(=O)N[C@@H](CCC(=O)O)C(=O)N[C@@H](CCCNC(=N)N)C(=O)N[C@@H](CCC(N)=O)C(=O)NCC(=O)N[C@@H](CCCCN)C(=O)N[C@H](C(=O)N1CCC[C@H]1C(=O)N[C@@H](CC(C)C)C(=O)O)[C@@H](C)O)[C@@H](C)O)[C@@H](C)CC` [HR2-2], the “Binding to HR1-1 peptide (in words)” value is reported as “strongly bind”. Besides, the Response (concentration 3.75 μM) came out at 0.0341 nm. The compound further showed a Response (concentration 7.5 μM) of 0.0743 nm. Besides, the Response (concentration 15 μM) is reported as 0.0958 nm. The compound also came in with a Response (concentration 30 μM) of 0.119 nm.
With `CC[C@H](C)[C@H](NC(=O)[C@H](CC(=O)O)NC(=O)[C@H](CC(=O)O)NC(=O)[C@H](CO)NC(=O)[C@H](Cc1ccccc1)NC(=O)[C@H](Cc1c[nH]cn1)NC(=O)[C@@H](N)[C@@H](C)O)C(=O)N[C@@H](CCC(=O)O)C(=O)N[C@@H](CCC(N)=O)C(=O)N[C@@H](CCC(N)=O)C(=O)N[C@@H](C)C(=O)N[C@@H](CC(=O)O)C(=O)N[C@@H](CC(N)=O)C(=O)N[C@@H](CCSC)C(=O)N[C@H](C(=O)N[C@H](C(=O)N[C@@H](CCC(=O)O)C(=O)N[C@@H](CCSC)C(=O)N[C@@H](CC(C)C)C(=O)N[C@@H](CCC(N)=O)C(=O)N[C@@H](CCCCN)C(=O)N[C@@H](CCC(=O)O)C(=O)N[C@@H](Cc1ccc(O)cc1)C(=O)N[C@@H](CCSC)C(=O)N[C@@H](CCC(=O)O)C(=O)O)[C@@H](C)O)[C@@H](C)CC` [HR2-3], the on-rate constant (kon) (in general, the rate constant with which the complex forms) is 1420 M⁻¹ s⁻¹. Moreover, for the setting “read-out: Kdis”, the koff came out at 0.0823 s⁻¹.
